{"source": "patent US7208484B2", "about": "“Method of synthesizing 1alpha-hydroxy-2-methylene-19-nor-homopregnacalciferol” (Wisconsin Alumni Research Foundation, priority 2002, dated 2007)", "origin": "cited, not measured here", "key": {"[1]": {"details": "in vivo"}, "vitamin D receptors": {"target": "T1, vitamin D receptors (Homo sapiens, UniProt P11473)", "T1 sequence (P11473 1-427)": "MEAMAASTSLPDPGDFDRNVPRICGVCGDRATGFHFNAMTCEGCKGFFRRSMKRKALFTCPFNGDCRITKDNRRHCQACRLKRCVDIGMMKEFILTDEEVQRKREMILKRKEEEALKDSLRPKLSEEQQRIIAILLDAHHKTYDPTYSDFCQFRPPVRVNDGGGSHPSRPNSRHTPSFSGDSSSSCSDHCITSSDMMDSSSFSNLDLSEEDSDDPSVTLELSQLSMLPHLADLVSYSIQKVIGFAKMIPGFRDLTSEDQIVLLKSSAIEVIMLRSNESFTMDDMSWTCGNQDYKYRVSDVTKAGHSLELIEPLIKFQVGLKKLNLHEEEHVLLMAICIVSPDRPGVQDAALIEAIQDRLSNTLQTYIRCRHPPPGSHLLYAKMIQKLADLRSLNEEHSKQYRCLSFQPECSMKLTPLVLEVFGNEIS", "details": "compared with 1α,25-dihydroxyvitamin D3"}}}
{"smiles": "C=C1C(=CC=C2CCCC3(C)C2CCC3C(C)C)CC(O)CC1O", "note": "(stereo not drawn) [1α-hydroxy-20-methyl-pregnacalciferol]", "values": [{"measurement": "calcemic activity", "setting": "[1]", "result": "essentially devoid of calcemic activity"}, {"measurement": "HL-60 cell differentiation ability", "setting": "HL-60 cell", "result": "some HL-60 cell differentiation ability"}, {"measurement": "binding to the receptor", "setting": "vitamin D receptors", "result": "comparable binding to the receptor as 1α,25-dihydroxyvitamin D3"}]}
